Assay: In vitro dissolution in simulated lung fluid
Format: physicochemical
Conditions: simulated lung fluid with 0.01% w/v DPPC, ca. 2 mg CsA in 100 mL, 100 r/min, 37 °C, HPLC; n = 3
Method: In vitro dissolution was carried out in simulated lung fluid. Simulated lung fluid was prepared with some modifications according to the literature. The composition of simulated lung fluid included NaCl (6.40 g/L), CaCl2·2H2O (0.26 g/L), Na2HPO4 (0.15 g/L), NaHCO3 (2.70 g/L), NH4Cl (0.12 g/L), MgCl2 (0.10 g/L), Na2SO4·10H2O (0.18 g/L), Na3citrate·2H2O (0.16 g/L), Glycine (0.19 g/L), and dipalmitoylphosphatidylcholine (0.01% w/v). Raw CsA and formulation (ca. 2 mg CsA) were dispersed in 100 mL dissolution medium and placed in a magnetic stirrer (MR Hei-Tec, Heidolph, Germany) maintained at 100 r/min and 37 °C. At predetermined intervals, suspensions (0.5 mL) were withdrawn and centrifuged. The supernatants were diluted with 0.5 mL of ethanol and determined by the HPLC method, as described in Section 2.3.

Release amount within 24 h: ≤ 24%
Substance: Cyclosporine A [raw CsA]
